Regarding `*C(=O)Nc1ccc(Oc2cccc(NC(=O)c3ccc4c(c3)C(=O)N(c3ccc(Oc5ccc(C6(c7ccc(Oc8ccc(N9C(=O)c%10ccc(*)cc%10C9=O)cc8)cc7)NC(=O)c7ccccc76)cc5)cc3)C4=O)c2)cc1` (repeat unit), the glass transition temperature was determined as 302.00 °C.

`*C(=O)Nc1ccc(Oc2ccccc2-c2ccccc2Oc2ccc(NC(=O)c3ccc4c(c3)C(=O)N(c3ccc(Oc5ccc(Oc6ccc(N7C(=O)c8ccc(*)cc8C7=O)cc6)cc5)cc3)C4=O)cc2)cc1` (repeat unit): the glass transition temperature was found to be 238.00 °C. Under `*C(=O)Nc1ccc(Oc2ccccc2-c2ccccc2Oc2ccc(NC(=O)c3ccc4c(c3)C(=O)N(c3cccc(N5C(=O)c6ccc(*)cc6C5=O)c3)C4=O)cc2)cc1` (repeat unit) stands 237.00 °C; under `*C(=O)Nc1ccc(S(=O)(=O)c2ccc(NC(=O)c3ccc4c(c3)C(=O)N(c3cc(-c5nc6ccccc6s5)cc(N5C(=O)c6ccc(*)cc6C5=O)c3)C4=O)cc2)cc1` (repeat unit), 357.00 °C.

`*C(=O)Nc1ccc(S(=O)(=O)c2ccc(NC(=O)c3ccc4c(c3)C(=O)N(c3ccc(-c5sc(-c6ccc(N7C(=O)c8ccc(*)cc8C7=O)cc6)c(-c6ccccc6)c5-c5ccccc5)cc3)C4=O)cc2)cc1` (repeat unit): the glass transition temperature amounted to 340.00 °C.

`*C(=O)Nc1cccc(C(=O)Nc2cccc(NC(=O)c3ccc4[nH]c(-c5ccc(-c6nc7cc(*)ccc7[nH]6)cc5)nc4c3)c2)c1` (repeat unit): the glass transition temperature stood at 312.00 °C. For `*C(=O)Nc1cccc(N2C(=O)CC(N3C(=O)c4ccc(*)cc4C3=O)C2=O)c1` (repeat unit) the value was 130.00 °C.

`*C(=O)Nc1cccc(NC(=O)c2ccc3[nH]c(-c4cc(-c5nc6cc(*)ccc6[nH]5)cc(N5C(=O)c6ccccc6C5=O)c4)nc3c2)n1` (repeat unit) yielded a glass transition temperature of 312.00 °C. As to `*C(=O)Nc1cccc(NC(=O)c2ccc3[nH]c(-c4ccc(-c5nc6cc(*)ccc6[nH]5)cc4)nc3c2)c1` (repeat unit), the glass transition temperature turned out to be 294.00 °C.

Compound `*C(=O)Nc1cccc(NC(=O)c2ccc3[nH]c(-c4cccc(-c5nc6cc(*)ccc6[nH]5)c4)nc3c2)c1` (repeat unit) came in with a glass transition temperature of 297.50 °C. For `*C(=O)Nc1cccc(NC(=O)c2ccc3c(c2)C(=O)N(c2ccc(Oc4ccc(C5(c6ccc(Oc7ccc(N8C(=O)c9ccc(*)cc9C8=O)cc7)cc6)NC(=O)c6ccccc65)cc4)cc2)C3=O)c1` (repeat unit) the value was 328.00 °C. For `*C(=O)Nc1cccc(NC(=O)c2ccc3c(c2)C(=O)N(c2ccc(Oc4ccc5ccc(Oc6ccc(N7C(=O)c8ccc(*)cc8C7=O)cc6)cc5c4)cc2)C3=O)c1` (repeat unit) the value was 286.00 °C. The compound `*Nc1ccc(*)cc1` (repeat unit) displayed a glass transition temperature of 75.30 °C. `*Nc1cccc(C(=O)c2ccc(NC(=O)c3cccc(C(=O)c4ccc(C(*)=O)cc4)c3)cc2)c1` (repeat unit) registered a glass transition temperature of 215.00 °C.

Compound `*Nc1cccc(NC(=C(C#N)C#N)c2cccc(C(*)=C(C#N)C#N)c2)c1` (repeat unit) had a glass transition temperature of 278.00 °C.

With `*Nc1cccc(NC(=O)c2ccc(C(*)=O)cc2)c1` (repeat unit), the glass transition temperature was 238.00 °C. `*Oc1ccc(C(=O)Nc2ccc(S(=O)(=O)c3ccc(NC(=O)c4ccc(Oc5ccc(C(=O)c6ccc(S(=O)(=O)c7ccc(C(=O)c8ccc(*)cc8)cc7)cc6)cc5)cc4)cc3)cc2)cc1` (repeat unit) yielded a glass transition temperature of 260.00 °C. The compound `*Oc1ccc(C(=O)c2ccc(C(=O)c3ccc(Oc4ccc(Cc5ccc(*)cc5)cc4)cc3)cc2)cc1` (repeat unit) returned a glass transition temperature of 120.00 °C.

In turn, `*Oc1ccc(C(=O)c2ccc(C(=O)c3ccc(Oc4cccc(Cc5cccc(*)c5)c4)cc3)cc2)cc1` (repeat unit) gave a glass transition temperature of 122.00 °C. Take `*Oc1ccc(C(=O)c2cccc(NC(=O)c3cccc(C(=O)Nc4ccc(C(=O)c5ccc(*)cc5)cc4)c3)c2)cc1` (repeat unit): the glass transition temperature came to 204.00 °C. For `*Oc1ccc(Oc2ccc(C(=O)Nc3ccc(Oc4ccc(S(=O)(=O)c5ccc(Oc6ccc(NC(=O)c7ccc(*)cc7)cc6)cc5)cc4)cc3)cc2)cc1` (repeat unit) the value was 220.00 °C; for `*Oc1ccc(Oc2ccc(C(=O)c3cccc(NC(=O)c4cccc(C(=O)Nc5cccc(C(=O)c6ccc(*)cc6)c5)c4)c3)cc2)cc1` (repeat unit), 202.00 °C; for `*Oc1ccc(Oc2ccc(NC(=O)c3ccc(Oc4ccc(Oc5ccc(C(=O)Nc6ccc(*)cc6)cc5)cc4-c4ccccc4)cc3)cc2)cc1` (repeat unit), 209.00 °C.

`*Oc1ccc(Oc2ccc(NC(=O)c3ccc(Oc4ccc(Oc5ccc(C(=O)Nc6ccc(*)cc6)cc5)cc4-c4ccccc4)cc3)cc2)cc1-c1ccccc1` (repeat unit) had a glass transition temperature of 200.50 °C. For `*Oc1ccc(S(=O)(=O)c2ccc(Oc3ccc(NC(=O)c4cccc(C(=O)Nc5ccc(*)cc5)c4)cc3)cc2)cc1` (repeat unit) the value was 260.00 °C; for `*Oc1ccc2ccc(Oc3ccc(C(=O)Nc4cccc(NC(=O)c5ccc(*)cc5)c4)cc3)cc2c1` (repeat unit), 168.00 °C; for `*Oc1cccc(Oc2ccc(NC(=O)c3ccc(Oc4cccc(Oc5ccc(C(=O)Nc6ccc(*)cc6)cc5)c4)cc3)cc2)c1` (repeat unit), 176.50 °C. Under `*Oc1cccc2ccc(Oc3ccc(NC(=O)c4ccc(Oc5ccc(C(=O)Nc6ccc(*)cc6)cc5)cc4)cc3)cc12` (repeat unit) stands 236.00 °C; under `*c1ccc(-c2cc(-c3ccc(-c4ccccc4)cc3)cc(-c3ccc(N4C(=O)c5ccc(NC(=O)Nc6ccc(Oc7ccccc7-c7ccccc7Oc7ccc(NC(=O)Nc8ccc9c(c8)C(=O)N(*)C9=O)cc7)cc6)cc5C4=O)cc3)n2)cc1` (repeat unit), 249.00 °C; under `*c1ccc(-c2cc(-c3ccc(-c4ccccc4)cc3)cc(-c3ccc(N4C(=O)c5ccc(NC(=O)Nc6cccc(NC(=O)Nc7ccc8c(c7)C(=O)N(*)C8=O)n6)cc5C4=O)cc3)n2)cc1` (repeat unit), 248.00 °C. As for `*c1ccc(-c2ccc(-c3nc4cc(Oc5ccc(NC(=O)c6ccc7c(c6)C(=O)N(c6ccc(C(c8ccc(N9C(=O)c%10ccc(C(=O)Nc%11ccc(Oc%12ccc%13nc(-c%14ccccc%14)c(*)nc%13c%12)cc%11)cc%10C9=O)cc8)(C(F)(F)F)C(F)(F)F)cc6)C7=O)cc5)ccc4nc3-c3ccccc3)cc2)cc1` (repeat unit), the glass transition temperature was 290.00 °C. As to `*c1ccc(-c2nc3cc(Oc4ccc(NC(=O)c5ccc6c(c5)C(=O)N(c5ccc(C(c7ccc(N8C(=O)c9ccc(C(=O)Nc%10ccc(Oc%11ccc%12nc(-c%13ccccc%13)c(*)nc%12c%11)cc%10)cc9C8=O)cc7)(C(F)(F)F)C(F)(F)F)cc5)C6=O)cc4)ccc3nc2-c2ccccc2)cc1` (repeat unit), the glass transition temperature was 293.00 °C. Regarding `*c1ccc(Oc2ccc(-c3nc4cc(Oc5ccc(NC(=O)c6cc(C(=O)Nc7ccc(Oc8ccc9nc(-c%10ccccc%10)c(*)nc9c8)cc7)cc(N7C(=O)c8c(Cl)c(Cl)c(Cl)c(Cl)c8C7=O)c6)cc5)ccc4nc3-c3ccccc3)cc2)cc1` (repeat unit), the glass transition temperature is 295.00 °C. Under `*c1ccc(Oc2ccc(-c3nc4cc(Oc5ccc(NC(=O)c6cc(C(=O)Nc7ccc(Oc8ccc9nc(-c%10ccccc%10)c(*)nc9c8)cc7)cc(N7C(=O)c8ccccc8C7=O)c6)cc5)ccc4nc3-c3ccccc3)cc2)cc1` (repeat unit) stands 260.00 °C. Under `*c1ccc(Oc2ccc3ccccc3c2-c2c(Oc3ccc(N4C(=O)c5ccc(NC(=O)Nc6ccc(Oc7ccccc7-c7ccccc7Oc7ccc(NC(=O)Nc8ccc9c(c8)C(=O)N(*)C9=O)cc7)cc6)cc5C4=O)cc3)ccc3ccccc23)cc1` (repeat unit) stands 285.00 °C; under `*c1ccc(Oc2ccc3ccccc3c2-c2c(Oc3ccc(N4C(=O)c5ccc(NC(=O)Nc6cccc(NC(=O)Nc7ccc8c(c7)C(=O)N(*)C8=O)n6)cc5C4=O)cc3)ccc3ccccc23)cc1` (repeat unit), 283.00 °C; under `*c1ccc(Oc2ccc3ccccc3c2-c2c(Oc3ccc(N4C(=O)c5ccc(NC(=O)Nc6cccc7c(NC(=O)Nc8ccc9c(c8)C(=O)N(*)C9=O)cccc67)cc5C4=O)cc3)ccc3ccccc23)cc1` (repeat unit), 297.00 °C. For `*c1ccc2c(c1)C(=O)N(c1cccc(C(=O)Nc3ccc(Oc4ccc(NC(=O)c5cccc(N6C(=O)c7ccc(C(*)(C(F)(F)F)C(F)(F)F)cc7C6=O)c5)cc4)cc3)c1)C2=O` (repeat unit) the value was 298.00 °C; for `*c1ccc2c(c1)C(=O)N(c1cccc(C(=O)Nc3ccc(Oc4ccc(Oc5ccc(NC(=O)c6cccc(N7C(=O)c8ccc(C(*)(C(F)(F)F)C(F)(F)F)cc8C7=O)c6)cc5)cc4)cc3)c1)C2=O` (repeat unit), 283.00 °C. Regarding `*c1ccc2c(c1)C(=O)N(c1cccc(C(=O)Nc3ccc(Oc4cccc(Oc5ccc(NC(=O)c6cccc(N7C(=O)c8ccc(C(*)(C(F)(F)F)C(F)(F)F)cc8C7=O)c6)cc5)c4)cc3)c1)C2=O` (repeat unit), the glass transition temperature turned out to be 264.00 °C. As to `*c1cccc(NC(=O)c2ccc(OCCOCCOCCOCCOCCOc3ccc(C(=O)Nc4ccc5[nH]c(*)nc5c4)cc3)cc2)c1` (repeat unit), the glass transition temperature was determined as 140.00 °C.

`*c1cccc(NC(=O)c2ccc(OCCOc3ccc(C(=O)Nc4ccc5[nH]c(*)nc5c4)cc3)cc2)c1` (repeat unit) gave a glass transition temperature of 250.00 °C. For `*c1cccc(P(=O)(c2ccccc2)c2cccc(N3C(=O)c4ccc(NC(=O)OCCOc5ccc(C(c6ccc(OCCOC(=O)Nc7ccc8c(c7)C(=O)N(*)C8=O)cc6)(C(F)(F)F)C(F)(F)F)cc5)cc4C3=O)c2)c1` (repeat unit) the value was 214.00 °C. For the compound `*c1cccc(P(=O)(c2ccccc2)c2cccc(N3C(=O)c4ccc(NC(=O)OCCOc5ccc(P(=O)(c6ccccc6)c6ccc(OCCOC(=O)Nc7ccc8c(c7)C(=O)N(*)C8=O)cc6)cc5)cc4C3=O)c2)c1` (repeat unit), the glass transition temperature amounted to 218.00 °C.

The values are drawn from the PolyMetriX glass transition set.
